Results as given in patent publication US8691865B2 (AbbVie Inc., priority 2008, dated 2014).
Where two headings read alike, the source gives them in different places.

Molecular target: human Cav2.2 (Homo sapiens, UniProt Q00975)
Assay: Assessment of calcium channel activity using FLIPR (Ca2+ influx in IMR32 cells)
Assay type: cell-based
Method: (i) In Vitro Methods—Assessment of Calcium Channel Activity Using FLIPR:
The IMR32 cells were maintained in MEM media containing 10% (v/v) FBS, 1% (v/v) antibiotic/antimitotic, 1% (v/v) sodium pyruvate and 1% (v/v) MEM NEAA. Following dissociation in 0.05% (v/v) trypsin/EDTA, cells were seeded into black 1×96-well plates (Corning Cellbind) at a density of 1−1.2×10^5 cells/well and incubated in the maintenance media above for 48 hours at 37° C. […] To determine the IC50 values, the percent inhibition of the compound at each concentration was determined relative to the activity in the absence of inhibitor, and data was fitted using non-linear regression sigmoidal dose response curve analysis with GraphPad Prism®.

[1] = read-out: IC50 (μM) or percent inhibition (* indicates 3 minute incubation, otherwise 60 minute), IC50, 60 minute pre-incubation with compound, IMR32 cells, 80 mM KCl depolarization

Chain of human Cav2.2 (Q00975 whole entry): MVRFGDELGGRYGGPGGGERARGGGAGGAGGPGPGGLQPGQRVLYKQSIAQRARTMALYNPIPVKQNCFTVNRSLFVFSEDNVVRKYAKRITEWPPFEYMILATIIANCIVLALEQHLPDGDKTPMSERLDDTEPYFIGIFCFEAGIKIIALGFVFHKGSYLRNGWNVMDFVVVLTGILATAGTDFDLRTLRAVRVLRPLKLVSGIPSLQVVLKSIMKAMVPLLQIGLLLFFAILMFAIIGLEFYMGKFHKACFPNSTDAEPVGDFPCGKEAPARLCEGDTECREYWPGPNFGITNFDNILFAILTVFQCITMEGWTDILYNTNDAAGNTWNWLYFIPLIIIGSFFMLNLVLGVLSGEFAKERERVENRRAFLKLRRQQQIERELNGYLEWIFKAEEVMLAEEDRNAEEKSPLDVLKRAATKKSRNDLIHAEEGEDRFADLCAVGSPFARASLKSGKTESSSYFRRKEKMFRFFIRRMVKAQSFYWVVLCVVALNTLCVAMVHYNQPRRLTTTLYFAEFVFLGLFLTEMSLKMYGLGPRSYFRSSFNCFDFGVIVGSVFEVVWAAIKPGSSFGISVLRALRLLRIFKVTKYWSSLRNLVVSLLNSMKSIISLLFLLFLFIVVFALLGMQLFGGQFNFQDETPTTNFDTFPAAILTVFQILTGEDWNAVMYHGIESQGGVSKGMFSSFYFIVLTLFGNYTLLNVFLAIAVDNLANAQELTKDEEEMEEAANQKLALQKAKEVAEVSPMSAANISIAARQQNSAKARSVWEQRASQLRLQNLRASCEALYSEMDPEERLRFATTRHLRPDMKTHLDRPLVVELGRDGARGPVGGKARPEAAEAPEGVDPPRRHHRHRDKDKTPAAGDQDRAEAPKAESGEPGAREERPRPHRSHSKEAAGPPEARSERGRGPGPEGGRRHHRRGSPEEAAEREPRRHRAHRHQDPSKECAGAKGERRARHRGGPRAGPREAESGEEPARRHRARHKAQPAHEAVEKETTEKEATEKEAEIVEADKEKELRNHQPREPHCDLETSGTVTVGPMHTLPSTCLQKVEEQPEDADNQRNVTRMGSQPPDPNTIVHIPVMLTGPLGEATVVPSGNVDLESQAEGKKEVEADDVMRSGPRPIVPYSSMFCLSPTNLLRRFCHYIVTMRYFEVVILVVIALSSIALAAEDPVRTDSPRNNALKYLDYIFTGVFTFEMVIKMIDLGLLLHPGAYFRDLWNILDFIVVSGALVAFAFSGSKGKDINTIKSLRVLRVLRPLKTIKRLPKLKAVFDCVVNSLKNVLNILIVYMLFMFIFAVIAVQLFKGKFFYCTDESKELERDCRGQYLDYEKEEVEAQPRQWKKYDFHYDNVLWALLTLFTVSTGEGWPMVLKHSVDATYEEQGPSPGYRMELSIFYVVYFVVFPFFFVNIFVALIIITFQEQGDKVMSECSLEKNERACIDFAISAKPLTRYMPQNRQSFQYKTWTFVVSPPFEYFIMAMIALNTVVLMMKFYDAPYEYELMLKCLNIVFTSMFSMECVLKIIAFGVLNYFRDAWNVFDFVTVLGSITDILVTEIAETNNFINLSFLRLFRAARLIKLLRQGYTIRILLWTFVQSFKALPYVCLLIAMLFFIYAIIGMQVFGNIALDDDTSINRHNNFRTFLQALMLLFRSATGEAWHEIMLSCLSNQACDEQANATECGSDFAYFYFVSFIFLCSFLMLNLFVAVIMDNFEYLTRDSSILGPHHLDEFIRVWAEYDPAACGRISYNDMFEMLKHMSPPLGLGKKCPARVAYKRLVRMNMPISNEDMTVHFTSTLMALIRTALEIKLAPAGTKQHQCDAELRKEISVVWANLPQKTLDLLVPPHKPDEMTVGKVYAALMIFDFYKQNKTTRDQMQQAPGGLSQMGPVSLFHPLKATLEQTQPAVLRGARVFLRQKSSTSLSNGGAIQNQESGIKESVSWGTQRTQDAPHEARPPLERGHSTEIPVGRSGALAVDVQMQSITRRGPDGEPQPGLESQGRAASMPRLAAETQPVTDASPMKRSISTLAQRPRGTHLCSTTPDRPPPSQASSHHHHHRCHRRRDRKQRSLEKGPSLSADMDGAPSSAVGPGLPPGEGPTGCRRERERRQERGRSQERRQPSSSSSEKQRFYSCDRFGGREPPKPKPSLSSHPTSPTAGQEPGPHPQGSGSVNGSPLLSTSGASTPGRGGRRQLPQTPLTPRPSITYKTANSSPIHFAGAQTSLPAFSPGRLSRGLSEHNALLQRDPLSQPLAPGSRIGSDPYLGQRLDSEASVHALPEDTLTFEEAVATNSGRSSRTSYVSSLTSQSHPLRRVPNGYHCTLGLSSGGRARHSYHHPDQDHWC
Chain of human Cav2.2 (P54289 25-956 partner limits assumed): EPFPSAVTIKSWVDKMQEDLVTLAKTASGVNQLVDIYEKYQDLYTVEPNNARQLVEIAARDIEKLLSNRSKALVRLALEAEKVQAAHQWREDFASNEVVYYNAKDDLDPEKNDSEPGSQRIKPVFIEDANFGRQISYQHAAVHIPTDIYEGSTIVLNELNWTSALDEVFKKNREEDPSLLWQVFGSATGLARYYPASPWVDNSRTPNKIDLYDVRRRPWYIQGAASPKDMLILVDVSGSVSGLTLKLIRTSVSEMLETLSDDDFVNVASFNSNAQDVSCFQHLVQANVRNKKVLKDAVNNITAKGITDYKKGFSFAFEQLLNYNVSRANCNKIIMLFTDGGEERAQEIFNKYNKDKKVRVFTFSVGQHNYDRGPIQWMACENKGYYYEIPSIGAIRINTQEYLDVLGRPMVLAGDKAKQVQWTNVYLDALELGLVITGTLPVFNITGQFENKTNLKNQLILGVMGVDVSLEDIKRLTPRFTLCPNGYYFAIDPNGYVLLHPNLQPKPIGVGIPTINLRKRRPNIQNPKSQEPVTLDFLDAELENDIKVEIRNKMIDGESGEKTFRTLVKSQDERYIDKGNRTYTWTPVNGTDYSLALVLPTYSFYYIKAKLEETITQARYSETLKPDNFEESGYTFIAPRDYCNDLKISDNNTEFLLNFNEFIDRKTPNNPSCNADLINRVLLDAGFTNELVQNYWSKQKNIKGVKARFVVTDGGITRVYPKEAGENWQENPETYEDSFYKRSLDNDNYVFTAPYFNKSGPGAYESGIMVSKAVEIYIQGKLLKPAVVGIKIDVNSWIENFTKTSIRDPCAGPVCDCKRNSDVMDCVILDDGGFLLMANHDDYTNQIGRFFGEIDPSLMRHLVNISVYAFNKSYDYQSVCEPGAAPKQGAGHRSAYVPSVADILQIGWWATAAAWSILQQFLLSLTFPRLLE
Chain of human Cav2.2 (P54289 957-1103 partner limits assumed): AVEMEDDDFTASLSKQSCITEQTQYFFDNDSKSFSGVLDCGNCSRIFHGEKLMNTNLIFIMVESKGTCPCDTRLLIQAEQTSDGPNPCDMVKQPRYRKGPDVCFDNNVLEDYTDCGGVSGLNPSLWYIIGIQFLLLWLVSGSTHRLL
Chain of human Cav2.2 (P54284 whole entry partner): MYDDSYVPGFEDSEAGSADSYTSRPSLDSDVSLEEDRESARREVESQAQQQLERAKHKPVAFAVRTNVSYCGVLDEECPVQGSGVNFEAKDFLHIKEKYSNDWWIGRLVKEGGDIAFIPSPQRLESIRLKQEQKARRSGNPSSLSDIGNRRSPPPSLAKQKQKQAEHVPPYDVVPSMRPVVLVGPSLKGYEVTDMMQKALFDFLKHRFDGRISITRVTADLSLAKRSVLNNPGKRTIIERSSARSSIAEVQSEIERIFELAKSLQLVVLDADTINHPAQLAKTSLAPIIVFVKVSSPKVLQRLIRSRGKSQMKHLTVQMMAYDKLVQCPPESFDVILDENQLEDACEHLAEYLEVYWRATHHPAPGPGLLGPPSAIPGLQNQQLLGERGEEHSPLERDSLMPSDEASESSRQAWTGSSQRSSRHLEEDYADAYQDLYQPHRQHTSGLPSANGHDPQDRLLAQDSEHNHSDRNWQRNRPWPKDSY

| IC50 [µM] | IC50 [1] [µM] | SMILES |
| --- | --- | --- |
| 1.16 |  | FC(F)(F)c1cccc(N2C[C@H]3CC[C@H](NCc4coc(-c5ccc(Cl)cc5)n4)[C@H]3C2)n1 [Example 741, (3aR,4S,6aS)-N-{[2-(4-chlorophenyl)-1,3-oxazol-4-yl]methyl}-2-[6-(trifluoromethyl)pyridin-2-yl]octahydrocyclopenta[c]pyrrol-4-amine] |
|  | 3.14 | CC(C)C(C(=O)N[C@H]1CC[C@@H]2CN(Cc3cccc(F)c3)C[C@@H]21)c1ccccc1 (stereo partly drawn) [Example 87, N-[(3aR,4S,6aS)-2-(3-fluorobenzyl)octahydrocyclopenta[c]pyrrol-4-yl]-3-methyl-2-phenylbutanamide] |
| 0.41 |  | Cc1ccc(CN[C@H]2CC[C@@H]3CN(c4cccc(C(F)(F)F)n4)C[C@@H]32)cc1 [Example 649, (3aR,4S,6aS)-N-(4-methylbenzyl)-2-[6-(trifluoromethyl)pyridin-2-yl]octahydrocyclopenta[c]pyrrol-4-amine] |
|  | 4.55 | CC(C)C[C@@H](C(=O)N[C@H]1CC[C@H]2CN(Cc3cccc(C(F)(F)F)c3)C[C@H]21)N(C)C [Example 509, N^2,N^2-dimethyl-N^1-{(3aS,4S,6aR)-2-[3-(trifluoromethyl)benzyl]octahydrocyclopenta[c]pyrrol-4-yl}-L-leucinamide] |
| 0.96 |  | O=C(CCC(F)(F)F)N[C@H]1CC[C@@H]2CN(c3cccc(C(F)(F)F)n3)C[C@@H]21 [Example 582, 4,4,4-trifluoro-N-{(3aR,4S,6aS)-2-[6-(trifluoromethyl)pyridin-2-yl]octahydrocyclopenta[c]pyrrol-4-yl}butanamide] |
|  | 1.42 | CC(C)(C)[C@@H](C(=O)N[C@@H]1CC[C@H]2CN(Cc3ccccc3)C[C@H]21)c1ccccc1 [Example 32, (2R)-N-[(3aS,4R,6aR)-2-benzyloctahydrocyclopenta[c]pyrrol-4-yl]-3,3-dimethyl-2-phenylbutanamide] |
| 2.02 |  | CC(C)[C@@H](C(=O)N[C@@H]1CC[C@H]2CN(Cc3cccc(C(F)(F)F)c3)C[C@H]21)N(C)C(=O)OC(C)(C)C [Example 316, tert-butyl methyl((S)-3-methyl-1-oxo-1-((3aS,4R,6aR)-2-(3-(trifluoromethyl)benzyl)octahydrocyclopenta[c]pyrrol-4-ylamino)butan-2-yl)carbamate] |
| 4.5 |  | O=S(=O)(N[C@H]1CC[C@@H]2CN(c3cccc(C(F)(F)F)n3)C[C@@H]21)c1ccccc1Cl [Example 701, 2-chloro-N-{(3aR,4S,6aS)-2-[6-(trifluoromethyl)pyridin-2-yl]octahydrocyclopenta[c]pyrrol-4-yl}benzenesulfonamide] |
|  | 0.79 | O=C(N[C@@H]1CC[C@H]2CN(Cc3cccc(C(F)(F)F)c3)C[C@H]21)C(c1ccc(F)cc1)c1ccc(F)cc1 (relative stereo) [Example 146, 2,2-bis(4-fluorophenyl)-N-{(3aS*,4R*,6aR*)-2-[3-(trifluoromethyl)benzyl]octahydrocyclopenta[c]pyrrol-4-yl}acetamide] |
| 0.45 |  | O=C(N[C@@H]1CC[C@H]2CN(Cc3cccc(C(F)(F)F)c3)C[C@H]21)C(C1CCCCC1)C1CCCCC1 [Example 75, 2,2-dicyclohexyl-N-{(3aS,4R,6aR)-2-[3-(trifluoromethyl)benzyl]octahydrocyclopenta[c]pyrrol-4-yl}acetamide] |
| > 30 |  | CCC[C@H](NC)C(=O)N[C@@H]1CC[C@H]2CN(Cc3ccccc3)C[C@H]21 [Example 352, N^1-[(3aS,4R,6aR)-2-benzyloctahydrocyclopenta[c]pyrrol-4-yl]-N^2-methyl-L-norvalinamide] |
| 1.01 |  | Cc1c[nH]c(C(=O)N[C@H]2CC[C@@H]3CN(c4cccc(C(F)(F)F)n4)C[C@@H]32)c1 [Example 572, 4-methyl-N-{(3aR,4S,6aS)-2-[6-(trifluoromethyl)pyridin-2-yl]octahydrocyclopenta[c]pyrrol-4-yl}-1H-pyrrole-2-carboxamide] |
| 6.18 |  | O=C(Nc1ccc(F)cc1)N[C@H]1CC[C@@H]2CN(c3cccc(C(F)(F)F)n3)C[C@@H]21 [Example 709, 1-(4-fluorophenyl)-3-{(3aR,4S,6aS)-2-[6-(trifluoromethyl)pyridin-2-yl]octahydrocyclopenta[c]pyrrol-4-yl}urea] |
